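Step 1: Grow cells in 96-well plates. Step 2: Expose to compound for 48 hours at 5 concentrations. Step 3: Interpolate endpoints linearly; if unreached, use highest concentration. At the GI50, growth is halved.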 Active and inactive are the calls of the source. Cut-off read from the data, not from the text of the source: active = GI50 up to about 1.1 µM and inactive = higher.
Assays:
Experiment in all cases: NCI-60 cell line screen, 48 h
CAKI-1 = system: CAKI-1
COLO 205 = system: COLO 205
DU-145 = system: DU-145
HCC 2998 = system: HCC 2998
HCT-15 = system: HCT-15
HOP-92 = system: HOP-92
HT-29 = system: HT-29
LOX IMVI = system: LOX IMVI
MOLT-4 = system: MOLT-4
NCI-H460 = system: NCI-H460
OVCAR-8 = system: OVCAR-8
PC-3 = system: PC-3
RPMI-8226 = system: RPMI-8226
SK-MEL-2 = system: SK-MEL-2
SK-MEL-5 = system: SK-MEL-5
SK-OV-3 = system: SK-OV-3
SN12C = system: SN12C
T47D = system: T47D
TK-10 = system: TK-10
BT-549 = system: BT-549

Compound	GI50 (CAKI-1)	GI50 (COLO 205)	GI50 (DU-145)	GI50 (HCC 2998)	GI50 (HCT-15) [µM]	GI50 (HOP-92)	GI50 (HT-29)	GI50 (LOX IMVI)	GI50 (MOLT-4)	GI50 (NCI-H460)	GI50 (OVCAR-8)	GI50 (PC-3)	GI50 (RPMI-8226)	GI50 (SK-MEL-2)	GI50 (SK-MEL-5)	GI50 (SK-OV-3)	GI50 (SN12C)	GI50 (T47D)	GI50 (TK-10)	GI50 (BT-549)
COc1ccc(CC2NC(=O)/C=C/CC(C(C)C3OC3c3ccccc3)OC(=O)C(CC(C)C)OC(=O)C(C)CNC2=O)cc1Cl (stereo not drawn)	1.01e-05 µM (active)	< 1e-05 µM (active)	1.21e-05 µM (active)	3.07e-05 µM (active)	1.06e-05	0.000205 µM (active)	< 1e-05 µM (active)	< 1e-05 µM (active)	3.4e-05 µM (active)	< 1e-05 µM (active)	2.32e-05 µM (active)	1.04e-05 µM (active)	3.62e-05 µM (active)	0.001 µM (active)	< 1e-05 µM (active)	6.68e-05 µM (active)	2.38e-05 µM (active)	–	–	–
CCCCCCCCCc1c(Cl)nc(Cl)nc1Cl	4.78 µM (inactive)	19.5 µM (inactive)	17.3 µM (inactive)	3.74 µM (inactive)	12.3	15.3 µM (inactive)	17.5 µM (inactive)	1.95 µM (inactive)	1.96 µM (inactive)	18.2 µM (inactive)	16.1 µM (inactive)	15.7 µM (inactive)	14.6 µM (inactive)	–	11.7 µM (inactive)	20.4 µM (inactive)	12.9 µM (inactive)	10.1 µM (inactive)	23 µM (inactive)	–
Cc1cc(=O)oc2c(CNC(CO)C(=O)O)c(O)ccc12 (stereo not drawn)	> 100 µM (inactive)	> 100 µM (inactive)	> 100 µM (inactive)	–	> 100	> 100 µM (inactive)	> 100 µM (inactive)	> 100 µM (inactive)	> 100 µM (inactive)	> 100 µM (inactive)	> 100 µM (inactive)	> 100 µM (inactive)	> 100 µM (inactive)	> 100 µM (inactive)	> 100 µM (inactive)	> 100 µM (inactive)	> 100 µM (inactive)	> 100 µM (inactive)	80.9 µM (inactive)	–
COc1ccc(CSc2ccccc2Cn2cccc2)cc1OC	93.1 µM (inactive)	> 100 µM (inactive)	> 100 µM (inactive)	56.6 µM (inactive)	87.9	–	99.8 µM (inactive)	73.5 µM (inactive)	> 10 µM (inactive)	> 100 µM (inactive)	> 100 µM (inactive)	–	11.6 µM (inactive)	–	22.4 µM (inactive)	> 100 µM (inactive)	34.8 µM (inactive)	35.2 µM (inactive)	> 100 µM (inactive)	46 µM (inactive)
c1ccc(/N=c2/[nH]c3ccccc3s/c2=N/c2ccccc2)cc1	> 100 µM (inactive)	> 100 µM (inactive)	> 100 µM (inactive)	42.7 µM (inactive)	> 100	> 100 µM (inactive)	82 µM (inactive)	> 100 µM (inactive)	> 100 µM (inactive)	28.1 µM (inactive)	> 100 µM (inactive)	> 100 µM (inactive)	> 100 µM (inactive)	77.1 µM (inactive)	> 100 µM (inactive)	> 100 µM (inactive)	> 100 µM (inactive)	93.8 µM (inactive)	> 100 µM (inactive)	–
N#CC(c1nc2ccccc2s1)c1ncnc(Cl)c1[N+](=O)[O-] (stereo not drawn)	25.2 µM (inactive)	15.5 µM (inactive)	34.1 µM (inactive)	–	17.9	17.3 µM (inactive)	17.4 µM (inactive)	17.3 µM (inactive)	31.8 µM (inactive)	20.3 µM (inactive)	18.5 µM (inactive)	–	28.1 µM (inactive)	–	15.8 µM (inactive)	37.8 µM (inactive)	18.2 µM (inactive)	29.1 µM (inactive)	34.3 µM (inactive)	22.9 µM (inactive)
CCCC(=O)c1ccc(=O)n(C)c1	> 100 µM (inactive)	> 100 µM (inactive)	–	> 100 µM (inactive)	> 100	> 100 µM (inactive)	> 100 µM (inactive)	> 100 µM (inactive)	> 100 µM (inactive)	> 100 µM (inactive)	> 100 µM (inactive)	–	> 100 µM (inactive)	> 100 µM (inactive)	> 100 µM (inactive)	> 100 µM (inactive)	> 100 µM (inactive)	–	> 100 µM (inactive)	–
CC(Cl)(/C=C/Cl)C(Cl)/C=C/C(Cl)(CCl)CBr (stereo not drawn)	12.2 µM (inactive)	2.01 µM (inactive)	–	14.6 µM (inactive)	0.308	2.07 µM (inactive)	1.69 µM (inactive)	1.66 µM (inactive)	0.373 µM (active)	3.15 µM (inactive)	1.71 µM (inactive)	–	1.66 µM (inactive)	3.82 µM (inactive)	7.52 µM (inactive)	17.1 µM (inactive)	3.18 µM (inactive)	–	7.45 µM (inactive)	–
